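The compound was tested at five concentrations on cells cultured in 96-well plates, with a 48-hour exposure period. TGI is the concentration that stops growth completely.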 Some results are limits rather than exact numbers.

We go through nine compounds from PubChem BioAssay (NCI).

Test systems include NCI-H522 lung; HCC-2998 colon; OVCAR-3 ovarian; MDA-MB-435; HOP-62 NSCLC; CCRF-CEM leukemia; SN12C renal; SK-OV-3 ovarian; SF-268 CNS; ACHN renal; U251 CNS; SK-MEL-5 melanoma; MDA-N; HOP-92 NSCLC; OVCAR-4 ovarian; 786-0 renal; A498 renal.
Holding throughout (test): growth of human tumour cells (NCI), 48 h

As to `O=Nc1c(NO)ccc2nn(-c3ccccc3)nc12`, the TGI with NCI-H522 lung is 13.2 µM; with HCC-2998 colon, 85.5 µM; in the assay on OVCAR-3 ovarian it was greater than 100 µM; in the assay with MDA-MB-435, 38.3 µM; in the assay on HOP-62 NSCLC it was greater than 100 µM; in the assay with CCRF-CEM leukemia, greater than 100 µM. Besides, the TGI was 40 µM in the assay with SN12C renal; greater than 100 µM with SK-OV-3 ovarian; greater than 100 µM in the assay on SF-268 CNS; 47.7 µM in the assay on ACHN renal; greater than 100 µM with U251 CNS; 10.8 µM in the assay with SK-MEL-5 melanoma. Further, the TGI with MDA-N, in the assay with HOP-92 NSCLC, with OVCAR-4 ovarian and with 786-0 renal was greater than 100 µM in each case.
Regarding `O=C(OCc1ccccc1)N1CCCc2c(n(S(=O)(=O)c3ccccc3)c3ccccc23)C1`, the TGI in the assay on NCI-H522 lung, in the assay on OVCAR-3 ovarian, in the assay with HOP-62 NSCLC, in the assay on SN12C renal, in the assay on SK-OV-3 ovarian and in the assay on SF-268 CNS was greater than 100 µM throughout. Also, the TGI with ACHN renal, in the assay with U251 CNS, in the assay with SK-MEL-5 melanoma, with MDA-N, in the assay on A498 renal and in the assay with HOP-92 NSCLC was greater than 100 µM in each case. Besides, the TGI in the assay on OVCAR-4 ovarian and in the assay on 786-0 renal was greater than 100 µM each time.
On to `O=C(/C=C/c1ccc2c(c1)OCO2)CC(=O)/C=C/c1ccc2c(c1)OCO2`, for which the TGI in the assay on NCI-H522 lung, in the assay with HCC-2998 colon, in the assay on OVCAR-3 ovarian, with MDA-MB-435, in the assay with HOP-62 NSCLC and in the assay with CCRF-CEM leukemia was greater than 100 µM throughout. For the same compound, the TGI with SN12C renal, with SK-OV-3 ovarian, in the assay with ACHN renal, in the assay with U251 CNS, in the assay on SK-MEL-5 melanoma and in the assay on MDA-N was greater than 100 µM throughout. For the same compound, the TGI in the assay on OVCAR-4 ovarian is 68.5 µM; in the assay with 786-0 renal, greater than 100 µM.
Regarding `O=C(O)c1ccc(NNC(=O)c2cccc3c(=O)c4ccccc4[nH]c23)cc1`, the TGI in the assay on NCI-H522 lung is 96 µM; with HCC-2998 colon, greater than 100 µM; in the assay on OVCAR-3 ovarian, greater than 100 µM; in the assay on MDA-MB-435, greater than 100 µM; in the assay with HOP-62 NSCLC it was greater than 100 µM; in the assay with CCRF-CEM leukemia, greater than 100 µM. The TGI with SN12C renal, with SK-OV-3 ovarian, with SF-268 CNS, in the assay on ACHN renal, in the assay with U251 CNS and in the assay on SK-MEL-5 melanoma was greater than 100 µM in each case. Also, the TGI with MDA-N, in the assay with HOP-92 NSCLC, in the assay with OVCAR-4 ovarian and in the assay on 786-0 renal was greater than 100 µM in each case.
On to `O=C1C=C2CC[C@H]3[C@@H]4CC[C@H](OC(=O)c5cccc6cc7ccccc7nc56)[C@H]4CC[C@@H]3[C@H]2CC1`, for which the TGI in the assay on NCI-H522 lung is 69.2 µM; in the assay on OVCAR-3 ovarian it was greater than 100 µM; in the assay with MDA-MB-435 it was greater than 100 µM; in the assay with HOP-62 NSCLC, greater than 100 µM; in the assay with CCRF-CEM leukemia it was greater than 100 µM; in the assay on SN12C renal, greater than 100 µM. In addition, the TGI with SK-OV-3 ovarian, with SF-268 CNS, in the assay on ACHN renal, in the assay on U251 CNS, in the assay with SK-MEL-5 melanoma and with MDA-N was greater than 100 µM throughout. Moreover, the TGI in the assay with A498 renal, with OVCAR-4 ovarian and in the assay on 786-0 renal was greater than 100 µM throughout.
With `CC1(O)Oc2ccc3ccccc3c2C=C1C(N)=O` (stereo not given), the TGI in the assay on HCC-2998 colon, with MDA-MB-435, in the assay with HOP-62 NSCLC, in the assay on CCRF-CEM leukemia, with SK-OV-3 ovarian and with SF-268 CNS was greater than 100 µM each time. The TGI with ACHN renal, with U251 CNS, in the assay on SK-MEL-5 melanoma, in the assay on A498 renal, in the assay with HOP-92 NSCLC and in the assay on OVCAR-4 ovarian was greater than 100 µM throughout. This compound also yielded a TGI in the assay on 786-0 renal greater than 100 µM.
Regarding `CC(=O)CCC[C@H](C)[C@@H](O)[C@@H]1O[C@H]([C@@]2(C)CCC(=O)O2)C[C@H]1C(=O)O`, the TGI in the assay on NCI-H522 lung, in the assay with HCC-2998 colon, in the assay on OVCAR-3 ovarian, in the assay on MDA-MB-435, in the assay on HOP-62 NSCLC and in the assay with CCRF-CEM leukemia was greater than 100 µM each time. Also, the TGI with SN12C renal, in the assay on SK-OV-3 ovarian, in the assay on SF-268 CNS, in the assay on ACHN renal, with U251 CNS and in the assay with SK-MEL-5 melanoma was greater than 100 µM in each case. The TGI with MDA-N, in the assay on OVCAR-4 ovarian and in the assay on 786-0 renal was greater than 100 µM in each case.
`CC1=CC(=O)/C(=C/n2c(=S)[nH]c3ccc([N+](=O)[O-])cc32)C(=O)O1`: the TGI in the assay with NCI-H522 lung, in the assay with HCC-2998 colon, in the assay with OVCAR-3 ovarian, in the assay with MDA-MB-435, in the assay with HOP-62 NSCLC and with CCRF-CEM leukemia was greater than 100 µM throughout. Moreover, the TGI in the assay with SN12C renal, with SK-OV-3 ovarian, with SF-268 CNS, with ACHN renal, with U251 CNS and in the assay with SK-MEL-5 melanoma was greater than 100 µM in each case. Besides, the TGI in the assay on MDA-N, in the assay on HOP-92 NSCLC, in the assay with OVCAR-4 ovarian and with 786-0 renal was greater than 100 µM each time.
Consider `CN(C)c1nc(=NCc2cccnc2)ss1`, for which the TGI with MDA-MB-435, in the assay with HOP-62 NSCLC, in the assay on CCRF-CEM leukemia, in the assay with SN12C renal, with SK-OV-3 ovarian and with SF-268 CNS was greater than 10 µM in each case. The TGI in the assay with SK-MEL-5 melanoma, with MDA-N, with HOP-92 NSCLC, in the assay with OVCAR-4 ovarian and with 786-0 renal was greater than 10 µM throughout.
